For data set [1], the target named is T1, Ubiquitin carboxyl-terminal hydrolase 2 (Homo sapiens, UniProt O75604).
T1 sequence (O75604 whole entry): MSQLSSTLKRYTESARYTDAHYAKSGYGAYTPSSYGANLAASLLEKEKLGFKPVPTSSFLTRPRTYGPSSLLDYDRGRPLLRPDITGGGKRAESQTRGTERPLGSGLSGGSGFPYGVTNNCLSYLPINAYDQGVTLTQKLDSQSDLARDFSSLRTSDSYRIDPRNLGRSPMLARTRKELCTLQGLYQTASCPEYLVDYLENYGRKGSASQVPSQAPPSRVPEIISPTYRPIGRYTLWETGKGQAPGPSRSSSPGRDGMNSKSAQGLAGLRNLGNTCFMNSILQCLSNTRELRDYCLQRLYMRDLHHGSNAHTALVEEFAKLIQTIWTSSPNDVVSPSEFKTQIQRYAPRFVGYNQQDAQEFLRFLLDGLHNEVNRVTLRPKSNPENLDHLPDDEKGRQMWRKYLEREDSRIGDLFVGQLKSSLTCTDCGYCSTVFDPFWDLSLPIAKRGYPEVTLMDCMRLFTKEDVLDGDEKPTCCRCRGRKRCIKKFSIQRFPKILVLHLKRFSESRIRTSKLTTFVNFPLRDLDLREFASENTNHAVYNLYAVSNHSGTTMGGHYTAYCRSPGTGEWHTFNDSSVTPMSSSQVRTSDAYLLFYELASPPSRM
As to the kind of experiment: Inhibition of USP2 (267 to 599 residues) (unknown origin) expressed in Escherichia coli BL21 (DE3) cells using ubiquitin-rhodamine-110 as substrate preincubated with compound for 30 mins followed by substrate addition measured after 30 mins by fluorometric assay.

The nature of data set [2]: Cytotoxicity against human MCF-10A cells assessed as inhibition of cell growth incubated for 72 hrs by MTT assay. The format is toxicity, cell-based.
The nature of data set [3]: in vitro. The conditions noted are these: human, microsomes.
Description: Stability in human microsomes assessed as compound remaining measured after 30 mins
Data set [4] is described as follows: in vitro. The settings on record: mouse, microsomes.
Description: Stability in mouse microsomes assessed as compound remaining measured after 30 mins
The nature of data set [5]: in vitro. The conditions noted are these: mouse, plasma.
Description: Stability in mouse plasma assessed as compound remaining measured after 30 mins
In data set [6] the test system is MCF7. The data set is described as follows: Antiproliferative activity against human MCF7 cells assessed as inhibition of cell growth incubated for 72 hrs by MTT assay. The format is functional, cell-based. The settings on record: MCF7, 72 h. (Tetrazolium assays rely on reduction of a dye to a coloured formazan, in cell work by metabolically active cells.)
The target in data set [7] is T2, Ubiquitin carboxyl-terminal hydrolase 8 (Homo sapiens, UniProt P40818).
T2 sequence (P40818 whole entry): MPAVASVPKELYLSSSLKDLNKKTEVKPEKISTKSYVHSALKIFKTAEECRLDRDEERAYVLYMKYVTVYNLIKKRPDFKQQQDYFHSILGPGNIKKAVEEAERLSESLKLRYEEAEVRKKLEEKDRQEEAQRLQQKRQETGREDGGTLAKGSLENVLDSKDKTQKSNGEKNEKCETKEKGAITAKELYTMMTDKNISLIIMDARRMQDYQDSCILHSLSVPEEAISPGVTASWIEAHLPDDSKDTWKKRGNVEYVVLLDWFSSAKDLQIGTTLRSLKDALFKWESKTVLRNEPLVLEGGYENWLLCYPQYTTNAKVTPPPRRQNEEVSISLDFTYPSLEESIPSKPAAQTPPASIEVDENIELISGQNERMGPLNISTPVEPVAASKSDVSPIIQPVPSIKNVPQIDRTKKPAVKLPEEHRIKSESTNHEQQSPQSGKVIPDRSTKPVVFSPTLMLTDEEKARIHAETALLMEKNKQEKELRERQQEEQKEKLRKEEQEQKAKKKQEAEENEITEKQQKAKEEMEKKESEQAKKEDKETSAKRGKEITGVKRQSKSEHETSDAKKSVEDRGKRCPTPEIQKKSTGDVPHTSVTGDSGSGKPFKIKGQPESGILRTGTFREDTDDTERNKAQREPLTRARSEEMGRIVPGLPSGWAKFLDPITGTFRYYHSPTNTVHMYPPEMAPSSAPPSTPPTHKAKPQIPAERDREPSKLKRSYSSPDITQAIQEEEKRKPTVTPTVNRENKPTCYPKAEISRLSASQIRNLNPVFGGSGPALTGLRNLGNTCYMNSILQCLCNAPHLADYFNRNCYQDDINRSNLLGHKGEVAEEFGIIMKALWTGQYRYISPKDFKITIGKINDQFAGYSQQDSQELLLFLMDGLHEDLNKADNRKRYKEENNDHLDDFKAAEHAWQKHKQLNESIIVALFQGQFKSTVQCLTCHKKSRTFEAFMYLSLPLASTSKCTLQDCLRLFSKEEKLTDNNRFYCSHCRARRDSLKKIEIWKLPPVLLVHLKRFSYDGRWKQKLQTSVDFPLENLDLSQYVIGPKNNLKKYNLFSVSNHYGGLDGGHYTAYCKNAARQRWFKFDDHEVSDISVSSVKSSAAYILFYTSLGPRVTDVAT
As to the kind of experiment: Inhibition of N-terminal His6 tagged USP8 (734 to 1110 residues) (unknown origin) expressed in Escherichia coli BL21 (DE3) cells using ubiquitin-rhodamine-110 as substrate preincubated with compound for 30 mins followed by substrate addition measured after 30 mins by fluorometric assay.

The target in data set [8] is T1, Ubiquitin carboxyl-terminal hydrolase 2. The data set is described as follows: Inhibition of USP2 (unknown origin) using Di-Ub IQF K48-4 as substrate preincubated for 10 mins followed by substrate addition by high-throughput assay.
The target in data set [9] is T2, Ubiquitin carboxyl-terminal hydrolase 8. The data set is described as follows: Inhibition of USP8 (unknown origin) using Di-Ub IQF K48-02 as substrate preincubated for 30 mins followed by substrate addition by high-throughput assay.

In the case of `Cc1ccc(S(=O)(=O)Nc2cc(C(F)(F)F)ccc2C(=O)Nc2nc(-c3ccccc3)cs2)cc1`, the concentration for half-maximal inhibition (IC50) (usually the concentration that gives 50% inhibition) in data set [1] is 3.6 µM; in [6], 9.3 µM; in [7], 4.7 µM. In addition, the IC50 at 72 h in [2] worked out at 14.5 µM. Further, the share remaining (in general, the share of the starting amount still present when the sample was taken) at 0.5 h in data set [3] was greater than 90%; in data set [4], 72%; in data set [5], greater than 90%.

On to `CCCCS(=O)(=O)Cc1nc2c(nc1CS(=O)(=O)CCCC)C(=O)c1ccccc1C2=O`, for which the half-maximal inhibitory concentration (IC50) in data set [8] is less than 0.8 µM; in [9] it was less than 0.1 µM.

(Values after ChEMBL document CHEMBL5506002, “The discovery of potent USP2/USP8 dual-target inhibitors for the treatment of breast cancer via structure guided optimization of ML364” (Eur J Med Chem, 2024).)
